# Test system: angioedema in CSU patients
# Experiment: Phase 2 CSU study: angioedema activity score over 7 days (AAS7)
# Format: in vivo, human
# Design: AAS7, Median / AAS7 Change from baseline, Median: scale not given here
# Source text: The study comprises a 12 week, randomized, double-blind, placebo-controlled, multi-center, dose-ranging efficacy and safety phase, followed by a 40 week open label extension (OLE) phase (see FIG. 1). The study consists of three phases and an optional OLE phase. […] The weekly angioedema activity score (AAS7) was proposed as a tertiary endpoint. […] Patients were to complete the AAS using the e-diary. The e-diary was to be used once daily on the same time of each day recording of participant's answers to the angioedema activity score over 7 days (AAS7) questionnaire.
# [1] = Omalizumab-Naïve Population, 400 mg TID, Week 7
# [2] = Omalizumab-Naïve Population, 400 mg TID, Week 8
# [3] = Omalizumab-Naïve Population, 400 mg TID, Week 9
# [4] = Omalizumab-Naïve Population, 400 mg TID, Week 10
# [5] = Omalizumab-Naïve Population, 400 mg TID, Week 11
# [6] = Omalizumab-Naïve Population, 400 mg TID, Week 12
# [7] = Patients with Prior Omalizumab Use, 400 mg BID, Week 1
# [8] = Patients with Prior Omalizumab Use, 400 mg BID, Week 2
# [9] = Patients with Prior Omalizumab Use, 400 mg BID, Week 3
# [10] = Patients with Prior Omalizumab Use, 400 mg BID, Week 4
# [11] = Patients with Prior Omalizumab Use, 400 mg BID, Week 5
# [12] = Patients with Prior Omalizumab Use, 400 mg BID, Week 6
# [13] = Patients with Prior Omalizumab Use, 400 mg BID, Week 7
# [14] = Patients with Prior Omalizumab Use, 400 mg BID, Week 8
# [15] = Patients with Prior Omalizumab Use, 400 mg QPM, Week 1
# [16] = Patients with Prior Omalizumab Use, 400 mg QPM, Week 2
# [17] = Patients with Prior Omalizumab Use, 400 mg QPM, Week 3
# [18] = Patients with Prior Omalizumab Use, 400 mg QPM, Week 4
# [19] = Patients with Prior Omalizumab Use, 400 mg QPM, Week 5
# [20] = Patients with Prior Omalizumab Use, 400 mg QPM, Week 6
# [21] = Patients with Prior Omalizumab Use, 400 mg QPM, Week 7
# [22] = Patients with Prior Omalizumab Use, 400 mg QPM, Week 8
smiles,measurement,setting,value
"CC(C)(C=C(C#N)C(=O)N1CCC[C@@H](n2nc(-c3ccc(Oc4ccccc4)cc3F)c3c(N)ncnc32)C1)N1CCN(C2COC2)CC1 [rilzabrutinib, (R)-2-[3-[4-amino-3-(2-fluoro-4-phenoxy-phenyl)pyrazolo[3,4-d]pyrimidin-1-yl]piperidine-1-carbonyl]-4-methyl-4-[4-(oxetan-3-yl)piperazin-1-yl]pent-2-enenitrile]","AAS7 Change from baseline, Median",[1],−27.00
same,"AAS7 Percent change from baseline, Mean (SD)",[1],−66.41 (55.40) %
same,"AAS7 Percent change from baseline, Median",[1],−93.41%
same,"AAS7 Change from baseline, Mean (SD)",[2],−33.38 (24.94)
same,"AAS7 Change from baseline, Median",[2],−25.00
same,"AAS7 Percent change from baseline, Mean (SD)",[2],−69.90 (38.13) %
same,"AAS7 Percent change from baseline, Median",[2],−85.88%
same,"AAS7, Median",[3],1.40
same,"AAS7 Change from baseline, Mean (SD)",[3],−38.54 (26.30)
same,"AAS7 Change from baseline, Median",[3],−39.00
same,"AAS7 Percent change from baseline, Mean (SD)",[3],−78.96 (34.18) %
same,"AAS7 Percent change from baseline, Median",[3],−98.13%
same,"AAS7, Median",[4],2.00
same,"AAS7 Change from baseline, Mean (SD)",[4],−39.26 (24.84)
same,"AAS7 Change from baseline, Median",[4],−40.00
same,"AAS7 Percent change from baseline, Mean (SD)",[4],−82.44 (32.63) %
same,"AAS7 Percent change from baseline, Median",[4],−96.61%
same,"AAS7, Median",[5],3.00
same,"AAS7 Change from baseline, Mean (SD)",[5],−36.30 (27.49)
same,"AAS7 Change from baseline, Median",[5],−31.00
same,"AAS7 Percent change from baseline, Mean (SD)",[5],−76.08 (33.07) %
same,"AAS7 Percent change from baseline, Median",[5],−96.00%
same,"AAS7, Median",[6],0.00
same,"AAS7 Change from baseline, Mean (SD)",[6],−37.55 (25.86)
same,"AAS7 Change from baseline, Median",[6],−31.00
same,"AAS7 Percent change from baseline, Mean (SD)",[6],−82.72 (30.20) %
same,"AAS7 Percent change from baseline, Median",[6],−100.00%
same,"AAS7, Mean (SD)",[7],0.00 (0.00)
same,"AAS7, Median",[7],0.00
same,"AAS7 Change from baseline, Mean (SD)",[7],−39.50 (3.54)
same,"AAS7 Change from baseline, Median",[7],−39.50
same,"AAS7 Percent change from baseline, Mean (SD)",[7],−100.00 (0.00) %
same,"AAS7 Percent change from baseline, Median",[7],−100.00%
same,"AAS7, Mean (SD)",[8],0.00 (0.00)
same,"AAS7, Median",[8],0.00
same,"AAS7 Change from baseline, Mean (SD)",[8],−39.50 (3.54)
same,"AAS7 Change from baseline, Median",[8],−39.50
same,"AAS7 Percent change from baseline, Mean (SD)",[8],−100.00 (0.00) %
same,"AAS7 Percent change from baseline, Median",[8],−100.00%
same,"AAS7, Mean (SD)",[9],0.00 (0.00)
same,"AAS7, Median",[9],0.00
same,"AAS7 Change from baseline, Mean (SD)",[9],−39.50 (3.54)
same,"AAS7 Change from baseline, Median",[9],−39.50
same,"AAS7 Percent change from baseline, Mean (SD)",[9],−100.00 (0.00) %
same,"AAS7 Percent change from baseline, Median",[9],−100.00%
same,"AAS7, Mean (SD)",[10],0.00 (0.00)
same,"AAS7, Median",[10],0.00
same,"AAS7 Change from baseline, Mean (SD)",[10],−39.50 (3.54)
same,"AAS7 Change from baseline, Median",[10],−39.50
same,"AAS7 Percent change from baseline, Mean (SD)",[10],−100.00 (0.00) %
same,"AAS7 Percent change from baseline, Median",[10],−100.00%
same,"AAS7, Mean (SD)",[11],0.00 (0.00)
same,"AAS7, Median",[11],0.00
same,"AAS7 Change from baseline, Mean (SD)",[11],−39.50 (3.54)
same,"AAS7 Change from baseline, Median",[11],−39.50
same,"AAS7 Percent change from baseline, Mean (SD)",[11],−100.00 (0.00) %
same,"AAS7 Percent change from baseline, Median",[11],−100.00%
same,"AAS7, Mean (SD)",[12],0.00 (0.00)
same,"AAS7, Median",[12],0.00
same,"AAS7 Change from baseline, Mean (SD)",[12],−39.50 (3.54)
same,"AAS7 Change from baseline, Median",[12],−39.50
same,"AAS7 Percent change from baseline, Mean (SD)",[12],−100.00 (0.00) %
same,"AAS7 Percent change from baseline, Median",[12],−100.00%
same,"AAS7, Mean (SD)",[13],1.00 (1.41)
same,"AAS7, Median",[13],1.00
same,"AAS7 Change from baseline, Mean (SD)",[13],−38.50 (2.12)
same,"AAS7 Change from baseline, Median",[13],−38.50
same,"AAS7 Percent change from baseline, Mean (SD)",[13],−97.62 (3.37) %
same,"AAS7 Percent change from baseline, Median",[13],−97.62%
same,"AAS7, Mean (SD)",[14],0.00 (0.00)
same,"AAS7, Median",[14],0.00
same,"AAS7 Change from baseline, Mean (SD)",[14],−39.50 (3.54)
same,"AAS7 Change from baseline, Median",[14],−39.50
same,"AAS7, Mean (SD)",[15],27.00 (NC)
same,"AAS7, Median",[15],27.00
same,"AAS7 Change from baseline, Mean (SD)",[15],41.00 (NC)
same,"AAS7 Change from baseline, Median",[15],−41.00
same,"AAS7 Percent change from baseline, Mean (SD)",[15],−60.29 (NC) %
same,"AAS7 Percent change from baseline, Median",[15],−60.29%
same,"AAS7, Mean (SD)",[16],25.00 (NC)
same,"AAS7, Median",[16],25.00
same,"AAS7 Change from baseline, Mean (SD)",[16],−43.00 (NC)
same,"AAS7 Change from baseline, Median",[16],−43.00
same,"AAS7 Percent change from baseline, Mean (SD)",[16],−63.24 (NC) %
same,"AAS7 Percent change from baseline, Median",[16],−63.24%
same,"AAS7, Mean (SD)",[17],29.00 (NC)
same,"AAS7, Median",[17],29.00
same,"AAS7 Change from baseline, Mean (SD)",[17],−39.00 (NC)
same,"AAS7 Change from baseline, Median",[17],−39.00
same,"AAS7 Percent change from baseline, Mean (SD)",[17],−57.35 (NC) %
same,"AAS7 Percent change from baseline, Median",[17],−57.35%
same,"AAS7, Mean (SD)",[18],26.00 (NC)
same,"AAS7, Median",[18],26.00
same,"AAS7 Change from baseline, Mean (SD)",[18],−42.00 (NC)
same,"AAS7 Change from baseline, Median",[18],−42.00
same,"AAS7 Percent change from baseline, Mean (SD)",[18],−61.76 (NC) %
same,"AAS7 Percent change from baseline, Median",[18],−61.76%
same,"AAS7, Mean (SD)",[19],37.00 (NC)
same,"AAS7, Median",[19],37.00
same,"AAS7 Change from baseline, Mean (SD)",[19],−31.00 (NC)
same,"AAS7 Change from baseline, Median",[19],−31.00
same,"AAS7 Percent change from baseline, Mean (SD)",[19],−45.59 (NC) %
same,"AAS7 Percent change from baseline, Median",[19],−45.59%
same,"AAS7, Mean (SD)",[20],21.00 (NC)
same,"AAS7, Median",[20],21.00
same,"AAS7 Change from baseline, Mean (SD)",[20],−47.00 (NC)
same,"AAS7 Change from baseline, Median",[20],−47.00
same,"AAS7 Percent change from baseline, Mean (SD)",[20],−69.12 (NC) %
same,"AAS7 Percent change from baseline, Median",[20],−69.12%
same,"AAS7, Mean (SD)",[21],12.00 (NC)
same,"AAS7, Median",[21],12.00
same,"AAS7 Change from baseline, Mean (SD)",[21],−56.00 (NC)
same,"AAS7 Change from baseline, Median",[21],−56.00
same,"AAS7 Percent change from baseline, Mean (SD)",[21],−82.35 (NC) %
same,"AAS7 Percent change from baseline, Median",[21],−82.35%
same,"AAS7, Mean (SD)",[22],18.00 (NC)
same,"AAS7, Median",[22],18.00
same,"AAS7 Change from baseline, Mean (SD)",[22],−50.00 (NC)

# — patent publication US20260256792A1, “TREATMENT OF CHRONIC SPONTANEOUS URTICARIA BY ADMINISTERING (R)-2-[3-[4-AMINO-3-(2-FLUORO-4-PHENOXY-PHENYL)PYRAZOLO[3,4-D]PYRIMIDIN-1-YL]PIPERIDINE-1-CARBONYL]-4-METHYL-4-[4-(OXETAN-3-YL)PIPERAZIN-1-YL]PENT-2-ENENITRILE” (priority 2023, published 2026)
